Data reported in US20240385173A1, “METHODS AND APPARATUS FOR TESTING IMMUNO-ONCOLOGY DRUGS AND BIOLOGICS USING MICROORGANOSPHERES” (Xilis, Inc., priority 2021, published 2024).
Entries after “also recorded” stand apart in the source; their conditions may differ. Read-outs that look alike come from different tables or passages of the source.

Legend:
[1] = tested on: MOSs from biopsy material; assay: Drug effect screen on MOSs generated from biopsy material (Example 3); assay type: cell-based, human; conditions: FIGS. 23B, 23C
Protocol: (§1) In a similar set of experiments, MOSs were generated from biopsy material (FIG. 23A), and a drug effect screen was performed using the resulting MOSs. […] Thus, the MOSs correlated strongly with patient response to the standard of care drugs. In this case, the patient endured six months of side effects and toxicities that may have been avoided by the predicted response from the MOSs, indicating (within 7-10 days from the biopsy) that the tumor would not respond to these drugs.

[2] = tested on: patient tumor; assay: Actual response of the patient's tumor to drug treatment; assay type: in vivo, human; conditions: for patient response to treatment: Example 3 patient, treated with both Oxalipalatin and Irinotecan, after 6 months of treatment
Protocol: as §1

[3] = tested on: PDX19187 bulk organoids and MOSs; assay type: cell-based, human; conditions: PDX19187 (also printed PDO19187, PDZ-19187), cell viabilities after 3 days of treatment
Protocol: (§2) Organoids were formed from Patient Derived Xenograft cells (including the PDX240 cells described above and a second PDX cell line, PDX19187) and were compared with MOSs formed using the same cells. The organoids were formed using conventional techniques in which a large mass of MATRIGEL in a well or dish was seeded with cells and cultured until growth was confirmed. MOSs were generated from the traditional organoids.
(§3) Both traditional (“bulk”) organoids and the MOSs were then treated with the same drugs (e.g., Oxaliplatin or SN38) and cell viabilities were measured after 3 days of treatment.

[4] = tested on: PDX240 bulk organoids and MOSs; assay: Cell viability drug response curves, bulk organoids versus MOSs, PDX240; assay type: cell-based, human; conditions: cell viabilities after 3 days of treatment
Excerpt: In some embodiments, the MOSs may be formed from cell lines grown as part of a Patient Derived Xenograft (PDX). For example, FIGS. 28A-28D illustrate MOSs formed from cultured PDX240 cells. PDX240 cells are a Patient Derived Xenograft (PDX) tumor cell line (numbered 240 based on patient source) that were human tumors grown in immunodeficient mice (PDX) to form in vivo tumors. The xenograft tissue was extracted dissociated, and used to form MOSs as described above. In this example a single cell was included in each MOS as it was formed. […] With progressive time in culture, at least some of the MOSs show the cells dividing and forming structures.
as §2, §3

[5] = tested on: MOSs derived from multiple myeloma (MM) bone marrow biopsies; assay: Caspase 3/7 green dye apoptosis assay on multiple myeloma MOSs (Incucyte imaging); assay type: cell-based, human; conditions: MM MOSs on day 11, images every 2 hours for 4 days
Protocol: FIGS. 44A and 44B show the efficacy of Lenalidomide and Bortezoid on MOSs derived from multiple myeloma (MM) bone marrow biopsies. MM MOSs (on day 11) were treated with Lenalidomine (5 uM) or Bortezoid (2 nM). Caspase 3/7 green dye was added in the assay to monitor apoptosis. Incucyte images were taken every 2 hours for 4 days. […] If this test were run on, for example, traditional bulk organoids, the results would not be reliable (due to the lack of patient immune cells) leading to uncertainty in the best course of action for patient treatment.

[6] = tested on: MOSs derived from pulmonary tumor biopsy; assay: Annexin V apoptosis assay on MOSs derived from a pulmonary tumor biopsy; assay type: cell-based, human
Protocol: (§4) Assays of the MOSs for these pulmonary and renal tumor biopsies were prepared with an Annexin V marker to indicate cellular apoptosis. […] If this test were run on, for example, traditional bulk organoids, the results would not be meaningful (due to the lack of patient immune cells) leading to uncertainty in the best course of action for patient treatment.
(§5) Assays of the MOSs for this pulmonary tumor biopsy were prepared with an Annexin V marker to indicate cellular apoptosis. […] If this test were run on, for example, traditional bulk organoids, the results would be less accurate (because ESK1 would not be able to reach its target) leading to uncertainty in the best course of action for patient treatment.
as §5, with “apoptosis and Cytolight Red dye to indicate tumor infiltrating lymphocytes (TIIs).” for “apoptosis.”, “(due” for “(because ESK1 would not be able”, “the inability of PBMC to penetrate the traditional bulk organoids)” for “reach its target)”
Assays of the MOSs for this pulmonary tumor biopsy were prepared with an Annexin V marker to indicate cellular apoptosis. […] This is an indication that TIIs can penetrate MOS to kill tumor cells. […]

[7] = tested on: MOSs derived from renal tumor biopsy; assay: Annexin V apoptosis assay on MOSs derived from a renal tumor biopsy; assay type: cell-based, human
Protocol: as §4

[8] = tested on: traditional cell line; assay: Traditional (2D) cell line dosed with drug; assay type: cell-based; conditions: all dose ranges examined; FIG. 22A
Excerpt: As mentioned above, the MOSs and methods of using them to screen for drug compositions may be used to accurately predict the response of a patient tumor to one or more drug therapies. […] For example, in FIG. 22A-22D, the MOSs, but not a cell line, was able to correlate with patient response.

[9] = tested on: tumor MOSs from patient biopsy; assay: Drug screen on tumor MOSs generated from a patient biopsy (Example 2); assay type: cell-based, human; conditions: FIG. 22B
[10] = tested on: mouse liver MOSs; assay: Toxicity assay using mouse liver MOSs; assay type: cell-based; conditions: 10 mM; FIGS. 33A-33B
[11] = tested on: human liver MOSs; assay: Toxicity assay using human liver MOSs; assay type: cell-based; conditions: 10 mM; FIGS. 34A-34B
Excerpt: Similarly, FIGS. 34A-34B also show toxicity assays using human liver MOSs.

CCc1c2c(nc3ccc(OC(=O)N4CCC(N5CCCCC5)CC4)cc13)-c1cc3c(c(=O)n1C2)COC(=O)[C@]3(O)CC [Irinotecan]
percent survival of the MOSs in the presence of the drug [1]: lack of effect
patient response to treatment [2]: no response

CCc1c2c(nc3ccc(O)cc13)-c1cc3c(c(=O)n1C2)COC(=O)[C@]3(O)CC [SN38, 7-Ethyl-10-hydroxy-camptothecin]
drug response curves of bulk organoids compared with MOSs (cell viability) [3]: comparable responses
drug response curves of bulk organoids compared with MOSs (cell viability) [4]: comparable responses

O=c1[nH]cc(F)c(=O)[nH]1 [5-FU, Fluorouracil]
drug response curves of bulk organoids compared with MOSs (cell viability) [4]: comparable responses

Nc1cccc2c1CN(C1CCC(=O)NC1=O)C2=O (stereo not drawn) [Lenalidomide]
response of MM MOSs in the form of tumor cell apoptosis (Caspase 3/7 green dye) ([5]; 5 uM): good response
response of MM MOSs in the form of tumor cell apoptosis (Caspase 3/7 green dye) ([5]; 5 uM, listed as Lenalidomine): induces apoptosis

Nivolumab
response of MOSs in the form of tumor cell apoptosis (Annexin V marker) [6]: induces apoptosis; also recorded: good response
response of MOSs in the form of tumor cell apoptosis (Annexin V marker) [7]: induces apoptosis; also recorded: good response

O=C1[O][Pt]2([NH][C@@H]3CCCC[C@H]3[NH]2)[O]C1=O [Oxaliplatin]
effect of drug on traditional cell line [8]: no effect
drug response curves of bulk organoids compared with MOSs (cell viability) ([3]; listed as Oxalipalatin): comparable response
percent survival of the MOSs in the presence of the drug [1]: no change in the percent survival
cell survival from the tumor MOSs [9]: significant decreases in cell survival
tumor response when patient treated with the drug ([2]; Example 2 patient, FIGS. 22C (before) and 22D (post treatment)): responded to treatment
patient response to treatment [2]: no response

CC(C)C[C@H](NC(=O)[C@H](Cc1ccccc1)NC(=O)c1cnccn1)B(O)O [Bortezoid]
response of MM MOSs in the form of tumor cell apoptosis (Caspase 3/7 green dye) ([5]; 2 nM): does not and not

CC(=O)Nc1ccc(O)cc1 [acetaminophen]
effect on tissue in mouse liver MOSs versus control group [10]: smaller and contains many dead cells
effect on tissue in human liver MOSs versus control group [11]: significant increase atypical tissue structures (arrows) and debris
